Measurements as given in ChEMBL document CHEMBL5034035, “Discovery of an Oxycyclohexyl Acid Lysophosphatidic Acid Receptor 1 (LPA1) Antagonist BMS-986278 for the Treatment of Pulmonary Fibrotic Diseases” (J Med Chem, 2021).
Values after ≈ are worked out from the molar mass of the structure shown.

Legend:
[1] = Protein binding in human plasma assessed as free fraction at 3 mg/kg, po or 1 mg/kg, iv measured up to 24 hrs by LC-MS/MS analysis; assay type: ADME, organism-based
[2] = Protein binding in CD-1 mouse plasma assessed as free fraction at 3 mg/kg, po or 1 mg/kg, iv measured up to 24 hrs by LC-MS/MS analysis; assay type: ADME, organism-based
[3] = Volume of distribution at steady state in CD-1 mouse at 3 mg/kg, po or 1 mg/kg, iv measured up to 24 hrs by LC-MS/MS analysis; assay type: ADME, organism-based; conditions: in vivo, read-out: Vdss
[4] = Volume of distribution at steady state in Sprague-Dawley rat at 3 mg/kg, po or 1 mg/kg, iv measured up to 24 hrs by LC-MS/MS analysis; assay type: ADME, organism-based; conditions: in vivo, read-out: Vdss
[5] = Elimination half life in Sprague-Dawley rat at 3 mg/kg, po or 1 mg/kg, iv measured up to 24 hrs by LC-MS/MS analysis; assay type: ADME, organism-based; conditions: in vivo, read-out: beta t1/2 (converted)
[6] = Elimination half life in cynomolgus monkey at 3 mg/kg, po or 1 mg/kg, iv measured up to 24 hrs by LC-MS/MS analysis; assay type: ADME, organism-based, Macaca fascicularis; conditions: in vivo, read-out: beta t1/2 (converted)
[7] = biological target: ATP-binding cassette sub-family C member 3 (Homo sapiens, UniProt O15438); experiment: Inhibition of MRP3 (unknown origin)
Sequence of ATP-binding cassette sub-family C member 3 (O15438 whole entry): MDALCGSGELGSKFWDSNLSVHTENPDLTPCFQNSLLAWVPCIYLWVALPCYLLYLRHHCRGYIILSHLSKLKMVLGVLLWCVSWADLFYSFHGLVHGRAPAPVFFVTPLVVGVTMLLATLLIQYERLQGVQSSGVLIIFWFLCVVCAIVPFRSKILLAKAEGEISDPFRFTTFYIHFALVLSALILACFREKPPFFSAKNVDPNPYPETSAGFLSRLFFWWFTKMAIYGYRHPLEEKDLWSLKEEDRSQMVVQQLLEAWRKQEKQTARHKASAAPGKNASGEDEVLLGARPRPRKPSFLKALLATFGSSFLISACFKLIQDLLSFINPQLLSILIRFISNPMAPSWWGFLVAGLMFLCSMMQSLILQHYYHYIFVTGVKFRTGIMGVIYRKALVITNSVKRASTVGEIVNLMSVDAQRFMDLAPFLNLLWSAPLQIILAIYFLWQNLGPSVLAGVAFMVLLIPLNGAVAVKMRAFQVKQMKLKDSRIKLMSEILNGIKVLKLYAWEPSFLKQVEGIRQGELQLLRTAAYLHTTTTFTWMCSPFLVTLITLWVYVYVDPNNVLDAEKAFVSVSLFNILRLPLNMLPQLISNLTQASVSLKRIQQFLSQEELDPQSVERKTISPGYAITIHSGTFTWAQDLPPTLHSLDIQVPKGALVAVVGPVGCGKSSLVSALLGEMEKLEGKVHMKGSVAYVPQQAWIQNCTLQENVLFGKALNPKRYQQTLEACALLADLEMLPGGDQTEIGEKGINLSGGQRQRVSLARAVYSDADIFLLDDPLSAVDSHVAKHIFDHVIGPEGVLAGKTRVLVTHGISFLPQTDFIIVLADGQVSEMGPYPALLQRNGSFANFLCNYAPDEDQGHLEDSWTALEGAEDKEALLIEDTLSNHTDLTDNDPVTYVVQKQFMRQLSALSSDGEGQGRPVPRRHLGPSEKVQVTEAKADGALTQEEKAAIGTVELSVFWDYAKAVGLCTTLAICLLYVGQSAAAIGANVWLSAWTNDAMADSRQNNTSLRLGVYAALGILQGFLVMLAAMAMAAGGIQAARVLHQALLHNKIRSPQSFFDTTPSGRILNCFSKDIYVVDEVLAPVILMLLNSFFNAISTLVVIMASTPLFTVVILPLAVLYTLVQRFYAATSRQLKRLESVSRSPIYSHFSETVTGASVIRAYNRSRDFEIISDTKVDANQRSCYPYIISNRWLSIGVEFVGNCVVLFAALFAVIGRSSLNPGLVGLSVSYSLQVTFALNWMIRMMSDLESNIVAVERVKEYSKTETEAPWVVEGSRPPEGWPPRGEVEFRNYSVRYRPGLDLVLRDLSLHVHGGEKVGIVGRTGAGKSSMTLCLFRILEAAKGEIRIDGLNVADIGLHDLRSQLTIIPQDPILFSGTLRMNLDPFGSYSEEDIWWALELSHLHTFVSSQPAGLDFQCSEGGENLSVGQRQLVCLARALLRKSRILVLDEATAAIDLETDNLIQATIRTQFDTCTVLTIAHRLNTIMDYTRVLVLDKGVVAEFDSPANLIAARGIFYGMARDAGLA

[8] = biological target: Cytochrome P450 2C9 (Homo sapiens, UniProt P11712); experiment: Inhibition of CYP2C9 (unknown origin); assay type: ADME
Sequence of Cytochrome P450 2C9 (P11712 whole entry): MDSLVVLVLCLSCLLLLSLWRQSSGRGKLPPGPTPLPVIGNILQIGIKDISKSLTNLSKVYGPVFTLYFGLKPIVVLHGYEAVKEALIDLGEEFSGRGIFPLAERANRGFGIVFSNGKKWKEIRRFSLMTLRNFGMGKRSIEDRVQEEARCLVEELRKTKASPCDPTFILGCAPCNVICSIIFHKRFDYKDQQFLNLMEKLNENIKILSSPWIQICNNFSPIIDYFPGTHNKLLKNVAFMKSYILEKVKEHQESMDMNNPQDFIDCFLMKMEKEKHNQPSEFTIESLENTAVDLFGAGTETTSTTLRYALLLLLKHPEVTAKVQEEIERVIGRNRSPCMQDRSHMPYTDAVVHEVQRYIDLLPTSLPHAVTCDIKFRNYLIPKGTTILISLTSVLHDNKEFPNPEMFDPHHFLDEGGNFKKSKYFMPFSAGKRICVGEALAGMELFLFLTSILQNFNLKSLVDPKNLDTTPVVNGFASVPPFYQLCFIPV

[9] = biological target: T1, Solute carrier organic anion transporter family member 1B1 (Homo sapiens, UniProt Q9Y6L6); experiment: Inhibition of OATP1B1 (unknown origin); assay type: ADME
T1 sequence (Q9Y6L6 whole entry): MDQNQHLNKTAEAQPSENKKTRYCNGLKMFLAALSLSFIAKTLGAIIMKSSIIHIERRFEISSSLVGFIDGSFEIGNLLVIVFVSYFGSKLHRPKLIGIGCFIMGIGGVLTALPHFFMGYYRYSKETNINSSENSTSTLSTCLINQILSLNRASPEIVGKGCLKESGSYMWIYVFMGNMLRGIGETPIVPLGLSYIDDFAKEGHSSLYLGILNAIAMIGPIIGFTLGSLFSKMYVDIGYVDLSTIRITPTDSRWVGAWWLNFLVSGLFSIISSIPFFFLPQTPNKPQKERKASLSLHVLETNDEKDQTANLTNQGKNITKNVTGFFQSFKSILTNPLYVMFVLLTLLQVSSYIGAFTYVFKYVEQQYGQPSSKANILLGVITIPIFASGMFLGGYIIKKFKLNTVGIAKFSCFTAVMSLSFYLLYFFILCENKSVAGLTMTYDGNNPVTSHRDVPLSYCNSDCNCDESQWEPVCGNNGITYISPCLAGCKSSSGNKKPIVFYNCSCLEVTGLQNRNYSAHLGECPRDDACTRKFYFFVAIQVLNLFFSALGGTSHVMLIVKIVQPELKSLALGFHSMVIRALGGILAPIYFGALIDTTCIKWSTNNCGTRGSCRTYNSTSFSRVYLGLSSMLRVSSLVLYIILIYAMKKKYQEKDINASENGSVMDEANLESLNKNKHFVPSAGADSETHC

[10] = biological target: T2, Solute carrier organic anion transporter family member 1B3 (Homo sapiens, UniProt Q9NPD5); experiment: Inhibition of OATP1B3 (unknown origin); assay type: ADME
T2 sequence (Q9NPD5 whole entry): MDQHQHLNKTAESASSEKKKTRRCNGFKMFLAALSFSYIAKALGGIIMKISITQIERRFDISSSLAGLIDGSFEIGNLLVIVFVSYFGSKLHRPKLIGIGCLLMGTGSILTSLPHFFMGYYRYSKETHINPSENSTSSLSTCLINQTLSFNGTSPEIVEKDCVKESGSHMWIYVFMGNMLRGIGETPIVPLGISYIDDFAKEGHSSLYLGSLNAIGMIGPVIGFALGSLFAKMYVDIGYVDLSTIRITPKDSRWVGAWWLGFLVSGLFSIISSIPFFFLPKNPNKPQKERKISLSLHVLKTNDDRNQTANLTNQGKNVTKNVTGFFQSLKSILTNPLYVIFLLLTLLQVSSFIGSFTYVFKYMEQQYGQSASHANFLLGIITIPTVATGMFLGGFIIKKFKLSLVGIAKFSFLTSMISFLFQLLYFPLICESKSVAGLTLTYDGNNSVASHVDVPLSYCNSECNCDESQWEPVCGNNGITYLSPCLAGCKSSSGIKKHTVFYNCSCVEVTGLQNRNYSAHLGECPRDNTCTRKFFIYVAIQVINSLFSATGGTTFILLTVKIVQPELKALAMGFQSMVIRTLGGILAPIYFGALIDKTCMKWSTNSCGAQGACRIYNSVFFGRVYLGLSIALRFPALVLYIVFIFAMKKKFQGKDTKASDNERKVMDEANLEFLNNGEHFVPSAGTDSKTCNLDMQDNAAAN

[11] = biological target: T3, Cytochrome P450 2C8 (Homo sapiens, UniProt P10632); experiment: Inhibition of CYP2C8 (unknown origin); assay type: ADME
T3 sequence (P10632 whole entry): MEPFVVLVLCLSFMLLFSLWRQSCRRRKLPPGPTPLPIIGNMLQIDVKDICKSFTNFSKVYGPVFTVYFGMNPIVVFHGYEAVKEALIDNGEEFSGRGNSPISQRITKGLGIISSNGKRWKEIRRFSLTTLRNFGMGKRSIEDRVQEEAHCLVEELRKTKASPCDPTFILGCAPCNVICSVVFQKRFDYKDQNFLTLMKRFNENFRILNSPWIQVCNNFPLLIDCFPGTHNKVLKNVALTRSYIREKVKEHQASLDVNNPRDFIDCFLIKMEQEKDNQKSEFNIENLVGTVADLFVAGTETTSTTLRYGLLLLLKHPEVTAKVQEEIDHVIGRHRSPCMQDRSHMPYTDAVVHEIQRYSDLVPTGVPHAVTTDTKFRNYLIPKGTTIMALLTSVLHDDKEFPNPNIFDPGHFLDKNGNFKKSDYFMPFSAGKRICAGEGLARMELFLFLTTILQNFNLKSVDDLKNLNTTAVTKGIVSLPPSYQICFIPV

[12] = biological target: Cytochrome P450 2C19 (Homo sapiens, UniProt P33261); experiment: Inhibition of CYP2C19 (unknown origin); assay type: ADME
Sequence of Cytochrome P450 2C19 (P33261 whole entry): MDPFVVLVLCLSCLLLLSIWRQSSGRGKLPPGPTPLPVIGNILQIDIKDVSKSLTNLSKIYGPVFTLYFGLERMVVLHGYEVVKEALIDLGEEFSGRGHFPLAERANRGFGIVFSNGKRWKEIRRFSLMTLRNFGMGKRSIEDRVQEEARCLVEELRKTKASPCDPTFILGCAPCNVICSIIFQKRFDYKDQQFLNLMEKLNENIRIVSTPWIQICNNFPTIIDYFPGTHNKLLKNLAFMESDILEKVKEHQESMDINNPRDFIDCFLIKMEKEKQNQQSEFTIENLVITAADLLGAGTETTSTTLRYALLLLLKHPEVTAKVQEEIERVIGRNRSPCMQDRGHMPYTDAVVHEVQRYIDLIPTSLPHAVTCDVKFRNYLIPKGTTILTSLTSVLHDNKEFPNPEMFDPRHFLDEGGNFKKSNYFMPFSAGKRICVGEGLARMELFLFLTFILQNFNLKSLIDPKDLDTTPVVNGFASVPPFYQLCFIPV

[13] = biological target: Cytochrome P450 2D6 (Homo sapiens, UniProt P10635); experiment: Inhibition of CYP2D6 (unknown origin); assay type: ADME
Sequence of Cytochrome P450 2D6 (P10635 whole entry): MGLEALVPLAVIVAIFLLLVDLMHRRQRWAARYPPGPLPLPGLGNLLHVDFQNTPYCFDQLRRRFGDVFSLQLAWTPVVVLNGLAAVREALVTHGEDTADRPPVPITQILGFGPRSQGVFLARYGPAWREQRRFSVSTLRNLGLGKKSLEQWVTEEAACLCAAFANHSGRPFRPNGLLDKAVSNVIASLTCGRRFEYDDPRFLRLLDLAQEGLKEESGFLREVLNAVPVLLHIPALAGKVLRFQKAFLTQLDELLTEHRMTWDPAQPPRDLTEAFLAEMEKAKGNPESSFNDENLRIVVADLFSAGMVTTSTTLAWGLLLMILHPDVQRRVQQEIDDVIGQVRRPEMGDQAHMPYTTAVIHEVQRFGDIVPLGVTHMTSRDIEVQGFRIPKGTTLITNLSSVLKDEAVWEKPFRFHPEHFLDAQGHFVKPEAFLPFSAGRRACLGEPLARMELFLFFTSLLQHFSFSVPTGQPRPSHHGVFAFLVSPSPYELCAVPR

[14] = biological target: CYP3A4 (Homo sapiens, UniProt P08684); experiment: Induction of CYP3A4 in human hepatocytes; assay type: ADME, cell-based, Hepatocyte
Sequence of CYP3A4 (P08684 whole entry): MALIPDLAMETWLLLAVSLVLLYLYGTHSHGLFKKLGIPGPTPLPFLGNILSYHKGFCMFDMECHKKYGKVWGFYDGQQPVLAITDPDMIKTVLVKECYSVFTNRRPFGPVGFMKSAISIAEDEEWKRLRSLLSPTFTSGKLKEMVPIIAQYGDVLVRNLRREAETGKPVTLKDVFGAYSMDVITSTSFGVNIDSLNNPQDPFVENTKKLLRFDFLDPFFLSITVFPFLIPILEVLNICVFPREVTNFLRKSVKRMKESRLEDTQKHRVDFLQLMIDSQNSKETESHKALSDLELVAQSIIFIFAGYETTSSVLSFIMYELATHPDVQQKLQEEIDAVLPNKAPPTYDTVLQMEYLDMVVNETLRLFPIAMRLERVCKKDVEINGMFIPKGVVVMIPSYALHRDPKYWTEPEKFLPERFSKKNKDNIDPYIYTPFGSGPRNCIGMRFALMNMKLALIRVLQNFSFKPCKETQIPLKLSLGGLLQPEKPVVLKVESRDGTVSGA

[15] = biological target: CYP2C9 (Homo sapiens, UniProt P11712); experiment: Induction of CYP2C9 in human hepatocytes; assay type: ADME, cell-based, Hepatocyte
Sequence of CYP2C9 (P11712 whole entry): as the sequence (P11712 whole entry) above

[16] = Half life in mouse liver microsomes at 10 uM measured after 120 mins; assay type: ADME, Microsome
[17] = Aqueous solubility of compound at pH 1; assay type: physicochemical
[18] = Drug metabolism in monkey hepatocytes assessed as formation of acyl glucuronides metabolites at 10 uM measured after 2 hrs by LC/UV/MS analysis; assay type: ADME, cell-based, Macaca mulatta, Hepatocyte; conditions: rhesus monkey
[19] = Lipophilicity, log D of compound at pH 6.5 by shake-flask method; assay type: physicochemical; conditions: buffer
[20] = Aqueous solubility of compound at pH 7.4; assay type: physicochemical

| fraction unbound at 24 h [1] | fraction unbound at 24 h [2] | Vd [3] [L/kg] | Vd [4] [L/kg] | half-life [5] [h] | half-life [6] [h] | IC50 [7] [µM] | IC50 [8] [µM] | IC50 [9] [µM] | IC50 [10] [µM] | IC50 [11] [µM] | IC50 [12] [µM] | IC50 [13] [µM] | IC50 [14] [µM] | IC50 [15] [µM] | half-life at 10 µM [16] [h] | solubility [17] [µg/mL] | Drug metabolism [18] | logD [19] | SMILES | solubility [20] [µg/mL] |
| --- | --- | --- | --- | --- | --- | --- | --- | --- | --- | --- | --- | --- | --- | --- | --- | --- | --- | --- | --- | --- |
| 0.056 | 0.314 | 5.5 | 3.5 | 4.5 | 11 | 66 | > 40 | 36 | 10 | > 40 | > 40 | > 40 | > 50 | > 50 | > 2 | 2990 (≈ 6710 µM) | Metabolite_Detected | 1.95 | CCCN(C)C(=O)OCc1c(-c2ccc(O[C@H]3CCC[C@H](C(=O)O)C3)c(C)n2)nnn1C [ADMILPARANT] | – |
| 0.033 | 0.1 | 14.6 | 9 | 2 | 14 | 24 | > 40 | 1.5 | 2.6 | > 40 | > 40 | > 40 | > 50 | > 50 | > 2 | 389 (≈ 825 µM) | Metabolite_Detected | 2.3 | Cc1nc(-c2nnn(C)c2COC(=O)N(C)CC2CCC2)ccc1O[C@H]1CCC[C@H](C(=O)O)C1 | 705 (≈ 1500 µM) |

| SMILES | fraction unbound at 24 h [1] | fraction unbound at 24 h [2] | Vd [3] [L/kg] | Vd [4] [L/kg] | half-life [5] [h] | half-life [6] [h] | IC50 [7] [µM] | IC50 [8] [µM] | IC50 [9] [µM] | IC50 [10] [µM] | IC50 [11] [µM] | IC50 [12] [µM] | IC50 [13] [µM] | IC50 [14] [µM] | IC50 [15] [µM] | half-life at 10 µM [16] [h] | solubility [17] [µg/mL] | Drug metabolism [18] | logD [19] | solubility [20] [µg/mL] |
| --- | --- | --- | --- | --- | --- | --- | --- | --- | --- | --- | --- | --- | --- | --- | --- | --- | --- | --- | --- | --- |
| Cc1noc(-c2ccc(-c3ccc(C4(C(=O)O)CC4)cc3)cc2)c1NC(=O)O[C@H](C)c1ccccc1 [BMS-986020] | 0.002 | 0.006 | – | – | – | – | 22 | 5.5 | 0.17 | 0.57 | 3.5 | > 50 | > 50 | > 50 | > 50 | 1.52 | < 1 | – | 3.6 | 11 (≈ 22.8 µM) |
